Experimental data as given in the kinase profiling compilation of Christmann-Franck et al. (2016).

Key:
Assay in all cases: radiometric filter-binding kinase assay, Kinase HotSpot
Details in all cases: compound 0.5 µM; ATP 10 µM
CAMK1G (human) = CAMK1G (human) (UniProt Q96NX5)
CAMKK2 (human) = CAMKK2 (human) (UniProt Q96RR4)
CDK2 CCNA2 (human) = CDK2 CCNA2 (human) (UniProt P24941+P20248)
CSNK1G3 (human) = CSNK1G3 (human) (UniProt Q9Y6M4)
DMPK (human) = DMPK (human) (UniProt Q09013)
EPHA6 (human) = EPHA6 (human) (UniProt Q9UF33)
EPHA8 (human) = EPHA8 (human) (UniProt P29322)
EPHB1 (human) = EPHB1 (human) (UniProt P54762)
FLT1 (human) = FLT1 (human) (UniProt P17948)
GRK7 (human) = GRK7 (human) (UniProt Q8WTQ7)
HIPK3 (human) = HIPK3 (human) (UniProt Q9H422)
IRAK4 (human) = IRAK4 (human) (UniProt Q9NWZ3)
MAP3K2 (human) = MAP3K2 (human) (UniProt Q9Y2U5)
MAP3K7 TAB1 (human) = MAP3K7 TAB1 (human) (UniProt O43318+Q15750)
MAP3K8 (human) = MAP3K8 (human) (UniProt P41279)
MARK3 (human) = MARK3 (human) (UniProt P27448)
MELK (human) = MELK (human) (UniProt Q14680)
MUSK (human) = MUSK (human) (UniProt O15146)
MYO3B (human) = MYO3B (human) (UniProt Q8WXR4)
PKN1 (human) = PKN1 (human) (UniProt Q16512)
PRKACG (human) = PRKACG (human) (UniProt P22612)
SLK (human) = SLK (human) (UniProt Q9H2G2)
STK16 (human) = STK16 (human) (UniProt O75716)
STK38 (human) = STK38 (human) (UniProt Q15208)
TLK2 (human) = TLK2 (human) (UniProt Q86UE8)
ULK3 (human) = ULK3 (human) (UniProt Q6PHR2)
ABL1 (human) = ABL1 (human) (UniProt P00519)
AURKB (human) = AURKB (human) (UniProt Q96GD4)
CSNK1D (human) = CSNK1D (human) (UniProt P48730)
EGFR (human) = EGFR (human) (UniProt P00533)
JAK2 JH1 JH2 (human) = JAK2 JH1 JH2 (human) (UniProt O60674)
LCK (human) = LCK (human) (UniProt P06239)
MAPK8 (human) = MAPK8 (human) (UniProt P45983)
MATK (human) = MATK (human) (UniProt P42679)
PKN2 (human) = PKN2 (human) (UniProt Q16513)
YES1 (human) = YES1 (human) (UniProt P07947)
ALK (human) = ALK (human) (UniProt Q9UM73)
[1] = system: ARAF (human), P10398 [Y301D/Y302D]
BRAF (human) = BRAF (human) (UniProt P15056)
CSNK2A2 (human) = CSNK2A2 (human) (UniProt P19784)
PDGFRB (human) = PDGFRB (human) (UniProt P09619)

Sequence of MUSK (human) (O15146 whole entry, looked up): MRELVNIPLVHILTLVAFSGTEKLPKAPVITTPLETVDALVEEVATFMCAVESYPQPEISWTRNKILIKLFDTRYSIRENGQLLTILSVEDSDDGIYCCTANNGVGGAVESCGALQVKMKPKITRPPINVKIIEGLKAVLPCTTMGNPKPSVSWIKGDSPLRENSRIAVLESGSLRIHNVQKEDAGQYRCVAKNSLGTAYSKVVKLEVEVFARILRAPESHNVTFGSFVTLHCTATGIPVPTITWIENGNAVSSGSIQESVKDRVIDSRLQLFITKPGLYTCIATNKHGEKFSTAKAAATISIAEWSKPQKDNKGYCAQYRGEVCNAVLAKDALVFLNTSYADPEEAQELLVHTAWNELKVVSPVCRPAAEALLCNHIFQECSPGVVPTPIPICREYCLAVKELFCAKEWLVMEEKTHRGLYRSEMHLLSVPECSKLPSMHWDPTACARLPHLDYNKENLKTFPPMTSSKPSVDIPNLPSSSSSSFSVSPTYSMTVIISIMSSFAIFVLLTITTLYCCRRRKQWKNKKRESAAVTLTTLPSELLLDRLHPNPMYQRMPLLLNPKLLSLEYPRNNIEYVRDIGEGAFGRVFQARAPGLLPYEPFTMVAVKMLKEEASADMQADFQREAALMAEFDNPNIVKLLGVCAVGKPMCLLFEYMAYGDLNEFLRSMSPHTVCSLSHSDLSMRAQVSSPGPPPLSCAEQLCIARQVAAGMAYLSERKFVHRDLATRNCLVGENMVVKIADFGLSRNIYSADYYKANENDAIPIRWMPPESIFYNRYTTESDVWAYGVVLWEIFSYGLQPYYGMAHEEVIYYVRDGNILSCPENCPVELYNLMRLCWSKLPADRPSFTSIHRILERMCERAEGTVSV
Sequence of AURKB (human) (Q96GD4 whole entry, looked up): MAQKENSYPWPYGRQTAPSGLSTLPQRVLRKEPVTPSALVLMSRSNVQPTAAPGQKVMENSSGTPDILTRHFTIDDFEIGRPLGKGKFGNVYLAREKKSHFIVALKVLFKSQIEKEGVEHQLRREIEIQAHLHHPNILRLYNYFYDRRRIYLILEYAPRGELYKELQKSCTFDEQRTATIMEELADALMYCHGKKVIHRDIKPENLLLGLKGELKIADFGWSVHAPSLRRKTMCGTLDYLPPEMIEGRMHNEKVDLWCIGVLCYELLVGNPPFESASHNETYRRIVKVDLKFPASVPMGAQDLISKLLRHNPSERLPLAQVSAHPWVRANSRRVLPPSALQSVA
Sequence of MAP3K8 (human) (P41279 whole entry, looked up): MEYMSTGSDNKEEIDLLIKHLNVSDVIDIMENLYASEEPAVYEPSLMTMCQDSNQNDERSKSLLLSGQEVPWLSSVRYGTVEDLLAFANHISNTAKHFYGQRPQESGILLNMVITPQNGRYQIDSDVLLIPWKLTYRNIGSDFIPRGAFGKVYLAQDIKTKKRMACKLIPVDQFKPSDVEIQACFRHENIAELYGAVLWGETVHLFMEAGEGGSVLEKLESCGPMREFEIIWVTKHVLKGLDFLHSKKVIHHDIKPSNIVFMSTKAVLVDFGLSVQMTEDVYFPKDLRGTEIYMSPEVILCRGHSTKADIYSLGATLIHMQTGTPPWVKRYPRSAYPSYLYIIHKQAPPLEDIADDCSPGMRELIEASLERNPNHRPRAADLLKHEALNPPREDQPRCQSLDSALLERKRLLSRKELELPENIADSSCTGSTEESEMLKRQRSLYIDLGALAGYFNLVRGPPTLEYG
Sequence of IRAK4 (human) (Q9NWZ3 whole entry, looked up): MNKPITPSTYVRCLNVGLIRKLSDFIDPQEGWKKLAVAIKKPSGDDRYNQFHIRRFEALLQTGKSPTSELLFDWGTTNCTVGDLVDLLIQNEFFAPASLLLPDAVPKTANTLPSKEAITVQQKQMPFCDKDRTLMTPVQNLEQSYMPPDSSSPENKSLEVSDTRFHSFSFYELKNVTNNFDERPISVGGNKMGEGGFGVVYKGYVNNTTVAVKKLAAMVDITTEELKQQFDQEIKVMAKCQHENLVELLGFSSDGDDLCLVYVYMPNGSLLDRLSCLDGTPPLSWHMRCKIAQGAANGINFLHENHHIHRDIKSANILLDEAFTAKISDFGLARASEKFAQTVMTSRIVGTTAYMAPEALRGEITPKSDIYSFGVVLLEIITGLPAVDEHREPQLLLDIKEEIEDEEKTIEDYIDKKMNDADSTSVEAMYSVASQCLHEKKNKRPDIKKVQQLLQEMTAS
Sequence of STK16 (human) (O75716 whole entry, looked up): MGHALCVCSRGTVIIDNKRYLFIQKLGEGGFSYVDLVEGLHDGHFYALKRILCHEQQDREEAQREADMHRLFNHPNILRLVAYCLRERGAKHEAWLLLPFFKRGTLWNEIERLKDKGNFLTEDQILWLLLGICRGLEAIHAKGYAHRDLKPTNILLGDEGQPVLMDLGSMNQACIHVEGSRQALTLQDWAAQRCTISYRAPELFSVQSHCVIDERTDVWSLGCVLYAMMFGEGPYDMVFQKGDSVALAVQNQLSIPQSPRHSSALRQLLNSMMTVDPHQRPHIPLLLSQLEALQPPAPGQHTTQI
Sequence of MAP3K7 TAB1 (human) (O43318 whole entry, looked up): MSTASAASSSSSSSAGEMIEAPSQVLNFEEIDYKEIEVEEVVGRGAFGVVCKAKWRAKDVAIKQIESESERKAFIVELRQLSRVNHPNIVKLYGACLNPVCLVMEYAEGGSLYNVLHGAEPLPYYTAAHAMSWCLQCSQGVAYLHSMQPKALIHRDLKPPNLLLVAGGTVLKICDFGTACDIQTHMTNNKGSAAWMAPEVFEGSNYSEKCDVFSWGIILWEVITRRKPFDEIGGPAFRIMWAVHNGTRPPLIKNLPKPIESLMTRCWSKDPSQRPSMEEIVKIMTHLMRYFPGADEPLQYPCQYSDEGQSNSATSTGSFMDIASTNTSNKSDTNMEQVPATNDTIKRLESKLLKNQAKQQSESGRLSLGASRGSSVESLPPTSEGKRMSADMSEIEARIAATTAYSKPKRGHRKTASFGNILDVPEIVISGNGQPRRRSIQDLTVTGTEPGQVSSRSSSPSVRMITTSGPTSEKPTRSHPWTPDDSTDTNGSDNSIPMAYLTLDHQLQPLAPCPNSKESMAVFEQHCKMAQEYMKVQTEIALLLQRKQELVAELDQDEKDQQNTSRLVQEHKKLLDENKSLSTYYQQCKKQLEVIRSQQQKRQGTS
Sequence of MAP3K7 TAB1 (human) (Q15750 whole entry, looked up): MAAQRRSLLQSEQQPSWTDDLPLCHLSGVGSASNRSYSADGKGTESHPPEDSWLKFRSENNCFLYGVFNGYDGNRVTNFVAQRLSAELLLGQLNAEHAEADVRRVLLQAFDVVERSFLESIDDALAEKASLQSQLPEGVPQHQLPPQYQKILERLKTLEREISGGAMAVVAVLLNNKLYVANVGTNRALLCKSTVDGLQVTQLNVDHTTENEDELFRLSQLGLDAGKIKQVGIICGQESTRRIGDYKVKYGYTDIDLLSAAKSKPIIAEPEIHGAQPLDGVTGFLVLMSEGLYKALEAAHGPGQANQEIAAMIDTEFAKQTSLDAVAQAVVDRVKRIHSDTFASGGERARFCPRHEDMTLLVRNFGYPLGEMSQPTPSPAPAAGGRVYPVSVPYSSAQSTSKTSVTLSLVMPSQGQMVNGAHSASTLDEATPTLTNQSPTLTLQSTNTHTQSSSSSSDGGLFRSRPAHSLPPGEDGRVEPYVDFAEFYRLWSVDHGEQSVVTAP
Sequence of GRK7 (human) (Q8WTQ7 whole entry, looked up): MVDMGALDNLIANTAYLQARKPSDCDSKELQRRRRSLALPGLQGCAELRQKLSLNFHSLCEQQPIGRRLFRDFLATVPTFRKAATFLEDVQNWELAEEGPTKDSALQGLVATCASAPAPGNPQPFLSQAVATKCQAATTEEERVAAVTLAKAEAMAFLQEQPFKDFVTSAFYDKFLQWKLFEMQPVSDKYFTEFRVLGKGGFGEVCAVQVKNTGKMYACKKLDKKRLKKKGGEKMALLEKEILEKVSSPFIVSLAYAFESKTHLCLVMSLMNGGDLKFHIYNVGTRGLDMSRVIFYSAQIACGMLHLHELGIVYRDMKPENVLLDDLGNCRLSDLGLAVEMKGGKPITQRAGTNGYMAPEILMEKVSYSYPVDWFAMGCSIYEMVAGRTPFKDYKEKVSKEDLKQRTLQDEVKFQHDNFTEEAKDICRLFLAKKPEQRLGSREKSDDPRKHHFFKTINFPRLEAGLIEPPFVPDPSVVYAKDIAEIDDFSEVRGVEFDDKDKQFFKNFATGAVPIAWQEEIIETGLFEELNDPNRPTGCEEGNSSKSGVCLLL
Sequence of STK38 (human) (Q15208 whole entry, looked up): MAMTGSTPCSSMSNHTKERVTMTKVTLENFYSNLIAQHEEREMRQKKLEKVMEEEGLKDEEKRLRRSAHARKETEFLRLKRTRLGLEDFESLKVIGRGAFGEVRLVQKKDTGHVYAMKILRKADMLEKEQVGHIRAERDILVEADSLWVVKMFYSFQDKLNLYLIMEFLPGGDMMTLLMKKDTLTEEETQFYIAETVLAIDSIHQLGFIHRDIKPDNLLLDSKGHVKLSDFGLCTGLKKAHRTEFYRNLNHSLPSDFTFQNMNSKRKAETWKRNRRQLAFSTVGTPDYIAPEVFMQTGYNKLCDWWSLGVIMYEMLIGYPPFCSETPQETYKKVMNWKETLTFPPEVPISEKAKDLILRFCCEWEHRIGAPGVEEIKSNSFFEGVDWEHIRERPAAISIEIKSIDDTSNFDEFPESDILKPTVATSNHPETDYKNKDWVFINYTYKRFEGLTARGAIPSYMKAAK
Sequence of CSNK1D (human) (P48730 whole entry, looked up): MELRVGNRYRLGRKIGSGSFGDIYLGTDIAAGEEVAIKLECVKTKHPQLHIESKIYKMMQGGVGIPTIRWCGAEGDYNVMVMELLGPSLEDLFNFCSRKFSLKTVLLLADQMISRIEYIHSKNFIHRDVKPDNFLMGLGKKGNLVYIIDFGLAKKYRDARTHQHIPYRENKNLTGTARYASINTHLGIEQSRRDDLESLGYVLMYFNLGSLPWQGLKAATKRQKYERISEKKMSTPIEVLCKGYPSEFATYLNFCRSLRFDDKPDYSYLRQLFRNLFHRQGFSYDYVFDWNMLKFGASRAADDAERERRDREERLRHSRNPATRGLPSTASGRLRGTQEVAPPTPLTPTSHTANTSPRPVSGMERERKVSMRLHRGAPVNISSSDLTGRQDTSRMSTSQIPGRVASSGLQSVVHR

Row | Structure (SMILES) | residual activity (CAMK1G (human)) | residual activity (CAMKK2 (human)) | residual activity (CDK2 CCNA2 (human)) | residual activity (CSNK1G3 (human)) | residual activity (DMPK (human)) | residual activity (EPHA8 (human)) | residual activity (EPHB1 (human)) | residual activity (FLT1 (human)) | residual activity (GRK7 (human)) | residual activity (HIPK3 (human)) | residual activity (IRAK4 (human)) | residual activity (MAP3K2 (human)) | residual activity (MAP3K7 TAB1 (human)) | residual activity (MAP3K8 (human)) | residual activity (MARK3 (human)) | residual activity (MELK (human)) | residual activity (MUSK (human)) | residual activity (PKN1 (human)) | residual activity (SLK (human)) | residual activity (STK16 (human)) | other results
1 | C#Cc1cccc(Nc2ncnc3cc(OCCOC)c(OCCOC)cc23)c1 | 111% | 97.1% | 95.9% | 106% | 96.9% | 89.7% | 100% | 87.5% | 98.3% | 102% | 93.8% | 117% | 88.8% | 91.8% | 96.4% | 88.6% | 94.6% | 108% | 42% | 98% | residual activity (EPHA6 (human)): 40.4%; residual activity (MYO3B (human)): 84.4%; residual activity (PRKACG (human)): 108%; residual activity (STK38 (human)): 101%; residual activity (TLK2 (human)): 85.9%; residual activity (ULK3 (human)): 105%
2 | CCCNC(=O)Nc1ccc(Oc2ncnc3cc(OC)c(OC)cc23)cc1Cl | 103% | 91.5% | 92.8% | 105% | 100% | 105% | 95.5% | 65.2% | 94.7% | 96.2% | 92% | 89.5% | 103% | 104% | 95.3% | 86.8% | 101% | 99.1% | 80% | 93.4% | residual activity (ABL1 (human)): 89%; residual activity (AURKB (human)): 37%; residual activity (CSNK1D (human)): 98.9%; residual activity (EGFR (human)): 88.1%; residual activity (EPHA6 (human)): 77.7%; residual activity (JAK2 JH1 JH2 (human)): 96.9%; residual activity (LCK (human)): 81.8%; residual activity (MAPK8 (human)): 107%; residual activity (MATK (human)): 96.8%; residual activity (MYO3B (human)): 76.2%; residual activity (PKN2 (human)): 99.2%; residual activity (PRKACG (human)): 106%; residual activity (STK38 (human)): 87.9%; residual activity (TLK2 (human)): 99.5%; residual activity (ULK3 (human)): 80.7%; residual activity (YES1 (human)): 82.1%
3 | CC(C)n1cnc2c(Nc3cccc(Cl)c3)nc(NCCO)nc21 | 98.7% | 68.2% | 42% | 6.89% | 98.5% | 98.2% | 76.9% | 93.4% | 88.7% | 99.9% | 95.2% | 97.6% | 92.7% | 92.2% | 92.3% | 59.7% | 58.6% | 101% | 84.8% | 89.8% | residual activity (ABL1 (human)): 73.3%; residual activity (ALK (human)): 91.8%; residual activity [1]: 107%; residual activity (AURKB (human)): 106%; residual activity (BRAF (human)): 97%; residual activity (CSNK1D (human)): 48.5%; residual activity (CSNK2A2 (human)): 91.8%; residual activity (EGFR (human)): 91.5%; residual activity (JAK2 JH1 JH2 (human)): 101%; residual activity (LCK (human)): 84.9%; residual activity (MAPK8 (human)): 94.8%; residual activity (MATK (human)): 93.3%; residual activity (PDGFRB (human)): 94.7%; residual activity (PKN2 (human)): 90.8%; residual activity (YES1 (human)): 33.7%
4 | Nc1n[nH]c2nnc(-c3c(-c4ccccc4)nn4ccccc34)cc12 | 99.2% | 101% | 92.9% | 104% | 103% | 100% | 98.6% | 96.7% | 96.7% | 95.3% | 99.7% | 97.8% | 101% | 95% | 99.3% | 102% | 96.8% | 98.2% | 94% | 108% | residual activity (ABL1 (human)): 83.3%; residual activity (ALK (human)): 108%; residual activity [1]: 98.4%; residual activity (AURKB (human)): 96.8%; residual activity (BRAF (human)): 95.7%; residual activity (CSNK1D (human)): 63.2%; residual activity (CSNK2A2 (human)): 93.4%; residual activity (EGFR (human)): 83.9%; residual activity (JAK2 JH1 JH2 (human)): 97.1%; residual activity (LCK (human)): 95.1%; residual activity (MAPK8 (human)): 98%; residual activity (MATK (human)): 95.6%; residual activity (PDGFRB (human)): 114%; residual activity (PKN2 (human)): 98.9%; residual activity (YES1 (human)): 91.1%
5 | O=c1cc(N2CCNCC2)oc2c(-c3ccccc3)cccc12 | 94.7% | 83.7% | 104% | 102% | 96.2% | 98.1% | 94.8% | 86.6% | 114% | 116% | 96.8% | 105% | 94.2% | 95.2% | 88.8% | 94.5% | 103% | 99.6% | 105% | 97.4% | residual activity (ABL1 (human)): 110%; residual activity (ALK (human)): 83.8%; residual activity (AURKB (human)): 97.8%; residual activity (CSNK1D (human)): 99.5%; residual activity (EGFR (human)): 110%; residual activity (EPHA6 (human)): 88.2%; residual activity (JAK2 JH1 JH2 (human)): 104%; residual activity (LCK (human)): 104%; residual activity (MAPK8 (human)): 89.3%; residual activity (MATK (human)): 84.5%; residual activity (MYO3B (human)): 97.5%; residual activity (PDGFRB (human)): 101%; residual activity (PKN2 (human)): 99.5%; residual activity (PRKACG (human)): 83.2%; residual activity (STK38 (human)): 94.3%; residual activity (TLK2 (human)): 94.8%; residual activity (ULK3 (human)): 101%; residual activity (YES1 (human)): 96.4%
